The record followed here is patent US20160025730A1, “METHODS OF SELECTING COMBINATION THERAPY FOR COLORECTAL CANCER PATIENTS” (NESTEC S.A., priority 2013, published 2016).

One experiment deals with AKT. The experiment can be described thus: CEER phospho AKT level. The following applies: Lim1215 cells, 24 h, assay range 1.02-40.
For another experiment, the system named is ERK. The experiment is described as follows: CEER phospho ERK level. Type of experiment: cell-based, human. Particulars: Lim1215 cells, 24 h, assay range 1.02-100.
The subject of a further experiment is MEK. The experiment is described as follows: CEER phospho MEK level. Type of experiment: cell-based, human. The following applies: Lim1215 cells, 24 h, assay range 1.02-100. From the text: (§1) These were complemented by ErbB heterodimerization assays using CEER.
The next experiment relates to RSK. The experiment is described as follows: CEER phospho RSK level. Type of experiment: cell-based, human. Particulars: Lim1215 cells, 24 h, assay range 2.56-100.
Excerpt: as §1

The test system of a further experiment is HER2:HER3. The experiment is described as follows: CEER ErbB heterodimerization assay, HER2:HER3 dimer. Type of experiment: cell-based, human. Particulars: Lim1215 cells, 24 h, assay range 50-1500.
Excerpt: (§2) In certain aspects, the present invention provides an assay for detecting and/or quantitating homo- or heterodimerization of receptor tyrosine kinases including, but not limited to, HER1:HER2 dimers, HER1:HER3 dimers, HER2:HER3 dimers, HER2:HER2 dimers, HER2:HER4 dimers, p95HER2:HER3 dimers, p95HER2:HER2 dimers, and the like. A homodimer is formed by two identical molecules such as HER2:HER2 in a process called homodimerization, whereas a heterodimer is formed by two different macromolecules such as HER1:HER3 or HER2:HER3 in a process called heterodimerization. In this aspect, the assay comprises three antibodies: (1) a capture antibody specific for one member of the dimer pair; (2) a first detection antibody specific for a first member of the dimer pair, wherein the first detection antibody is specific for a different domain than the capture antibody; and a (3) a second detection antibody specific for a second member of the dimer pair.
(§3) A first detection antibody is then used to bind to a different portion (e.g., epitope) on HER2. […] The first detection antibody comprises one or a plurality of first activation state-independent antibodies specific for one member of the dimer, whereas a second detection antibody or a plurality of second detection antibodies is specific for the other member of the dimer. […] Thereafter, the plurality of detectable captured analytes are incubated with a second member of the signal amplification pair, e.g., tyramide or tyramide biotin to generate an amplified signal, which is then detected.
as §1

Experiment [1] addresses T1, HER2 (Homo sapiens, UniProt P04626).
T1 construct: endogenous in cells; host or cells: Lim1215 human colon cancer cells
The experiment can be described thus: CEER phospho HER2 activation level. It counts as cell-based. The following applies: Lim1215 cells, 24 h, assay range 20.48-2000.
Excerpt: as §1

In experiment [2] the test system is HER3. The experiment can be described thus: CEER total HER3 expression level. It counts as cell-based, human. Particulars: Lim1215 cells, 24 h, assay range 390-25000.
Excerpt: as §1

The subject of experiment [3] is HER3. The experiment can be described thus: CEER phospho HER3 activation level. Particulars: Lim1215 cells, 24 h, assay range 12.8-1500. It counts as cell-based, human.
Excerpt: as §1

Experiment [4] relates to HER2. The experiment is described as follows: CEER total HER2 expression level. It counts as cell-based, human. The following applies: Lim1215 cells, 24 h, assay range 390-25000.
Excerpt: as §1

The subject of another experiment is HER3:PI3K. The experiment is described as follows: CEER HER3:PI3K complex assay. It counts as cell-based, human. Particulars: Lim1215 cells; 24 h; series 4 (FIG. 4; DMSO 24.7); assay range 3.9-500.
Excerpt: The assays described herein can be used to detect and quantitate the amount of PI3K complex and the amount of activation and/or phosphorylation of a PI3K complex. The PI3K complex comprises: (i) a dimerized receptor tyrosine kinase pair; and (ii) a PI3K p85 subunit and a PI3K p110 (e.g., α or β) subunit. In particular embodiments, the assay comprises three antibodies: (1) a capture antibody specific for either the PI3K p85 or the PI3K p110 subunit; (2) a first detection antibody specific for a first member of the dimerized receptor tyrosine kinase pair or a PI3K subunit, wherein the first detection antibody is specific for a different domain than the capture antibody and wherein the PI3K subunit may be activated; and (3) a second detection antibody specific for a second member of the dimer pair or a PI3K subunit.
as §1

Experiment [5] has as its system HER1. The experiment can be described thus: CEER total HER1 expression level. Type of experiment: cell-based, human. The following applies: Lim1215 cells, 24 h, assay range 7.8-500.
Excerpt: as §1

The target in experiment [6] is T2, HER1 (Homo sapiens, UniProt P00533).
T2 construct: endogenous in cells; host or cells: Lim1215 human colon cancer cells
The experiment can be described thus: CEER phospho HER1 activation level. It counts as cell-based. The following applies: Lim1215 cells; 24 h; series 4 (FIG. 4; DMSO 4.7); assay range 0.14-10.67.
Excerpt: as §1

The next experiment relates to HER1:HER3. The experiment can be described thus: CEER ErbB heterodimerization assay, HER1:HER3 dimer. It counts as cell-based, human. Particulars: Lim1215 cells, 24 h, assay range 200-20000.
Excerpt: as §2, §3, §1

Another experiment concerns HER1:HER2. The experiment is described as follows: CEER ErbB heterodimerization assay, HER1:HER2 dimer. Type of experiment: cell-based, human. Particulars: Lim1215 cells, 24 h, assay range 7.8-1000.
Excerpt: as §2, §3, §1

The mark [7] stands for this setting: series 3 (FIG. 3; control 11.4).
Where [8] appears, read: series 3 (FIG. 3; control 16.3).
Where [9] appears, read: series 3 (FIG. 3; control […] >ULOQ).
Where [10] appears, read: series 3 (FIG. 3; control 211.8).
The mark [11] stands for this setting: series 3 (FIG. 3; control 4282).
Setting [12] is: series 3 (FIG. 3; control 3025).

T1 sequence (P04626 23-1255): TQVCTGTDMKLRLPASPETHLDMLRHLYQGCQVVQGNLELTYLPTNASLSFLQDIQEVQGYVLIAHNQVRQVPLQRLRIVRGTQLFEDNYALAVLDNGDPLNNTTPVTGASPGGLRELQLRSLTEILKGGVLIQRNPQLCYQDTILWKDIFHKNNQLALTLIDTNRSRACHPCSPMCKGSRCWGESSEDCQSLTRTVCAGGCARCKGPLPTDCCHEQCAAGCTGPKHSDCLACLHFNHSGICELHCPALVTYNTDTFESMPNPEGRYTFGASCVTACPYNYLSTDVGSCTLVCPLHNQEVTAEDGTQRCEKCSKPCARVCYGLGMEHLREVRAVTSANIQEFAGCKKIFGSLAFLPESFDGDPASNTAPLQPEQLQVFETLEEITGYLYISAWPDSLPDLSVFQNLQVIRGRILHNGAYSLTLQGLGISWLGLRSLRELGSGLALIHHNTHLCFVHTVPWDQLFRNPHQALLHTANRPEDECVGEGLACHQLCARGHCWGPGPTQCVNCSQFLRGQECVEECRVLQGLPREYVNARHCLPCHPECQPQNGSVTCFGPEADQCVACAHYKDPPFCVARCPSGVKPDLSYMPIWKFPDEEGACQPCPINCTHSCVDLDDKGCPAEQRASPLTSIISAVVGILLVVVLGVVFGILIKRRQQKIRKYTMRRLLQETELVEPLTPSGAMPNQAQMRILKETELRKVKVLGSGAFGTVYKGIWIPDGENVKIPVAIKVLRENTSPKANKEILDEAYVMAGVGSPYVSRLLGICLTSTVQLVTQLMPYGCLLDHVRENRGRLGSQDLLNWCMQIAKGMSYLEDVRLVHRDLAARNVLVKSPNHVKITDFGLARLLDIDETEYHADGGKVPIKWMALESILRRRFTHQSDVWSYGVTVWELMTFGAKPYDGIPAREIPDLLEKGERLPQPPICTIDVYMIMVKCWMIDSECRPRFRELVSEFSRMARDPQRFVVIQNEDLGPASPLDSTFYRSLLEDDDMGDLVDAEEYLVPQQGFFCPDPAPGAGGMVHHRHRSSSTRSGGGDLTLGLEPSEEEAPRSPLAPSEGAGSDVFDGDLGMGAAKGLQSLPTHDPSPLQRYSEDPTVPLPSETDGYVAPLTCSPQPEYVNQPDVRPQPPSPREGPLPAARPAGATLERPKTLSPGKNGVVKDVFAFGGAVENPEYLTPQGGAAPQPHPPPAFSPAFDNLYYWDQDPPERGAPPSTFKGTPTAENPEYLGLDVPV
T2 sequence (P00533 25-1210): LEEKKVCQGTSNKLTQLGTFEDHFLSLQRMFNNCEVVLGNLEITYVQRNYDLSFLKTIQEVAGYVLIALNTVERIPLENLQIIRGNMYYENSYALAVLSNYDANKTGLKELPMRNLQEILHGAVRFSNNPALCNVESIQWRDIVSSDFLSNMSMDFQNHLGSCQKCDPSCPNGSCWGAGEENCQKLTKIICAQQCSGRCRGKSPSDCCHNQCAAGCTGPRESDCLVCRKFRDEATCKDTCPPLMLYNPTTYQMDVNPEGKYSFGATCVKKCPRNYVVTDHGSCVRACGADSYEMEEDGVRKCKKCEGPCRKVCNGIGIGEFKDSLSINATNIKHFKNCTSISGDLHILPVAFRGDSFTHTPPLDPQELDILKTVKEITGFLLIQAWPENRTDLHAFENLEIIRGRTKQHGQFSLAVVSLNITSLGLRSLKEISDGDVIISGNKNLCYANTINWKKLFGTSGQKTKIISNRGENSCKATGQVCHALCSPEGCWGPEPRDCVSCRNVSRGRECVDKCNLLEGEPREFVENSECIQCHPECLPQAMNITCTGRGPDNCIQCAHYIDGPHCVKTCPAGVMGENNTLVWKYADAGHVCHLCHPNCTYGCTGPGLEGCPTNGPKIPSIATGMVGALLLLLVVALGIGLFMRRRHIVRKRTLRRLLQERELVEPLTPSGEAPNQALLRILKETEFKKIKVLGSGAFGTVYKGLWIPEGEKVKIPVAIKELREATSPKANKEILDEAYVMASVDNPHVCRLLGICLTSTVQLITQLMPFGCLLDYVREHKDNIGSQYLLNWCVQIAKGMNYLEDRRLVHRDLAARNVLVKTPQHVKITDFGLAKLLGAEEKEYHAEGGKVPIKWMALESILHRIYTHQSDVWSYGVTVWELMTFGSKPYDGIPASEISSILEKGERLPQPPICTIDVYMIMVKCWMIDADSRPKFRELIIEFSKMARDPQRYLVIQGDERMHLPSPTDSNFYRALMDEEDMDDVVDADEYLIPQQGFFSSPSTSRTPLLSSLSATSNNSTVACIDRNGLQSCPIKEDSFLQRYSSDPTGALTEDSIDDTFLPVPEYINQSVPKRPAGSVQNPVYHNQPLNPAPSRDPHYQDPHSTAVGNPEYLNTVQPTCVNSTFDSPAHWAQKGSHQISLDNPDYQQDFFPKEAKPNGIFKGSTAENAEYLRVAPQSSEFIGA

For the molecule `COc1cc2ncnc(Nc3ccc(F)c(Cl)c3)c2cc1OCCCN1CCOCC1` [Gefitinib, gefitinib], in the experiment on AKT (setting [7]), the “Phos AKT (10 ug)” value amounted to 0.64 pg/µg. The “Phos ERK (10 ug)” value with ERK (series 3 (FIG. 3; control 5.3)) worked out at 1.1 pg/µg; with ERK (series 4 (FIG. 4; DMSO 3.3)), 0.68 pg/µg. Further, the “Phos MEK (10 ug)” value with MEK (setting [8]) is 2.9 pg/µg; in the experiment with MEK (series 4 (FIG. 4; DMSO 9.8)), 1.7 pg/µg. Besides, the “Phos RSK (10 ug)” value in the experiment with RSK (setting [9]) is 6.3 pg/µg; in the experiment on RSK (series 4 (FIG. 4; DMSO 91.4)), 4.7 pg/µg.

On to `CS(=O)(=O)CCNCc1ccc(-c2ccc3ncnc(Nc4ccc(OCc5cccc(F)c5)c(Cl)c4)c3c2)o1` [Lapatinib, lapatinib], for which the “Phos AKT (10 ug)” value in the experiment with AKT (setting [7]) was 0.66 pg/µg. Also, the “ErbB Dimer Formation HER2:HER3 (2 ug)” value with HER2:HER3 (setting [10]) turned out to be 493.6; in the experiment on HER2:HER3 (series 4 (FIG. 4; DMSO 172.5)) it was 301.3. In addition, the “Phos ERK (10 ug)” value with ERK (series 3 (FIG. 3; control 5.3)) worked out at 0.84 pg/µg; in the experiment with ERK (series 4 (FIG. 4; DMSO 3.3)), 0.56 pg/µg. Further, the “Phos HER2 (2.5 ug)” value on HER2 [1] (series 3 (FIG. 3; control 2068 >ULOQ)) is on record as 49; on HER2 [1] (series 4 (FIG. 4; DMSO 447)), 15. For the same molecule, the “Total HER3 (0.2 ug)” value was 5711 with HER3 [2] (setting [11]) and 6907 in the experiment on HER3 [2] (series 4 (FIG. 4; DMSO 3388)). The “Phos HER3 (10 ug)” value in the experiment on HER3 [3] (series 3 (FIG. 3; control 573)) was determined as 677. The “Phos MEK (10 ug)” value was 3.1 pg/µg in the experiment on MEK (setting [8]) and 1.4 pg/µg in the experiment on MEK (series 4 (FIG. 4; DMSO 9.8)). Also, the “Total HER2 (0.2 ug)” value with HER2 [4] (setting [12]) is given as 5391; in the experiment on HER2 [4] (series 4 (FIG. 4; DMSO 2581)), 4135. Moreover, in the experiment on HER3:PI3K, the “HER3:PI3K (4 ug)” value amounted to 23.0. Further, the “Phos RSK (10 ug)” value in the experiment with RSK (setting [9]) was determined as 3.9 pg/µg; with RSK (series 4 (FIG. 4; DMSO 91.4)), 3.3 pg/µg.

Consider `O=C(NC[C@H](O)CO)c1ccncc1Nc1ccc(I)cc1F` [iMEK AS703026, AS703026], for which the “ErbB Dimer Formation HER2:HER3 (2 ug)” value with HER2:HER3 (series 4 (FIG. 4; DMSO 172.5)) turned out to be 313.2. The “Phos ERK (10 ug)” value with ERK (series 4 (FIG. 4; DMSO 3.3)) came out at 1.1 pg/µg. Also, the “Phos HER2 (2.5 ug)” value on HER2 [1] (series 4 (FIG. 4; DMSO 447)) stood at 480. Also, in the experiment on HER1 [5] (series 4 (FIG. 4; DMSO 96.8)), the “Total HER1 (1 ug)” value is reported as 69.9. Besides, the “Total HER3 (0.2 ug)” value with HER3 [2] (series 4 (FIG. 4; DMSO 3388)) worked out at 3317. Also, the “Phos HER1 (10 ug)” value at HER1 [6] was determined as 2.9. Moreover, the “Phos HER3 (10 ug)” value in the experiment on HER3 [3] (series 4 (FIG. 4; DMSO 204)) stood at 300. Also, the “ErbB Dimer Formation HER1:HER3 (0.5 ug)” value in the experiment with HER1:HER3 (series 4 (FIG. 4; DMSO 186)) is listed as 226. Further, in the experiment with MEK (series 4 (FIG. 4; DMSO 9.8)), the “Phos MEK (10 ug)” value amounted to 74.9 pg/µg. Besides, the “Total HER2 (0.2 ug)” value in the experiment on HER2 [4] (series 4 (FIG. 4; DMSO 2581)) came to 2546. Moreover, the “ErbB Dimer Formation HER1:HER2 (2 ug)” value with HER1:HER2 (series 4 (FIG. 4; DMSO 42.7)) came out at 52.1. Besides, in the experiment on HER3:PI3K, the “HER3:PI3K (4 ug)” value is reported as 27.8. Moreover, the “Phos RSK (10 ug)” value in the experiment with RSK (series 4 (FIG. 4; DMSO 91.4)) is 35.9 pg/µg.

On to pertuzumab, for which the results for the “Phos AKT (10 ug)” value with AKT (series 2 (FIG. 2; Control 9.6)) and in the experiment with AKT (setting [7]) were 6.1 pg/µg and 1.2 pg/µg, respectively. The “ErbB Dimer Formation HER2:HER3 (2 ug)” value in the experiment with HER2:HER3 (series 2 (FIG. 2; Control 250.9)) is given as 704.6; in the experiment with HER2:HER3 (setting [10]), 472.1. The “Phos ERK (10 ug)” value in the experiment with ERK (series 2 (FIG. 2; Control 5.7)) was 5.6 pg/µg; in the experiment on ERK (series 3 (FIG. 3; control 5.3)), 2.2 pg/µg. The “Total HER1 (1 ug)” value in the experiment on HER1 [5] (series 2 (FIG. 2; Control 171.4)) is 198.5; in the experiment with HER1 [5] (series 3 (FIG. 3; control 137.2)), 115.1. The results for the “Total HER3 (0.2 ug)” value in the experiment on HER3 [2] (series 2 (FIG. 2; Control 7757)) and in the experiment on HER3 [2] (setting [11]) were 10665 and 5501, respectively. The “Phos HER3 (10 ug)” value is 313 in the experiment with HER3 [3] (series 2 (FIG. 2; Control 236)) and 826 in the experiment with HER3 [3] (series 3 (FIG. 3; control 573)). Moreover, the figures for the “ErbB Dimer Formation HER1:HER3 (0.5 ug)” value in the experiment on HER1:HER3 (series 2 (FIG. 2; Control 387)) and in the experiment with HER1:HER3 (series 3 (FIG. 3; control 398)) were 458 and 412, respectively. Also, the results for the “Phos MEK (10 ug)” value in the experiment with MEK (series 2 (FIG. 2; Control 38.0)) and in the experiment on MEK (setting [8]) were 17.1 pg/µg and 8.6 pg/µg, respectively. Also, the “Total HER2 (0.2 ug)” value with HER2 [4] (series 2 (FIG. 2; Control 4212)) stood at 7200; with HER2 [4] (setting [12]) it was 5568. The “ErbB Dimer Formation HER1:HER2 (2 ug)” value came out at 161.7 in the experiment with HER1:HER2 (series 2 (FIG. 2; Control […])) and 64.8 with HER1:HER2 (series 3 (FIG. 3; control 46.0)). Moreover, the results for the “Phos RSK (10 ug)” value in the experiment on RSK (series 2 (FIG. 2; Control 289 >ULOQ)) and with RSK (setting [9]) were 199 pg/µg and 92.1 pg/µg, respectively.
